Results taken from patent US20130157261A1, “Compositions and Methods for Quantitative Histology, Calibration of Images in Fluorescence Microscopy, and ddTUNEL Analyses” (The Methodist Hospital Research Institute, priority 2011, published 2013).

Experiments:
U87 cells [1] = test: in situ ligation of blunt-ended and 3′-T-OH overhanging oligonucleotide probes (DNA breaks); assay type: cell-based, human; details: for number of 3′-T-OH overhang ends / overhanging cuts / number of blunt-ended breaks: 24 hrs after treatment at LD50 concentration; for blebbing of treated cells: microscopy
Description: U87, human glioblastoma, cells were obtained from the American TypeCulture Collection (ATCC) Manassas, Va. and grown as recommended in DMEM with penicillin/streptomycin and 10% FBS. Following 3 weeks of growth and splitting cells were plated into slide chambers (Lab-Tek Nalge Nunc International, Rochester, N.Y., USA) at 2×10^5 cells per mL, and were allowed to grow thereon for 24 hrs until confluence was reached.
Twenty-four hrs after treatment, all cells were fixed with 4% PFA for one hr and washed 3× in 0.1 M PBS, incubated in 0.1% Triton-X100® for 6 min and then washed in 0.1 M PBS buffer. Each slide was assayed for double-strand DNA blunt-ended and overhanging 3′-OH ends, and counterstained for DNA with YO-PRO-1®.
The 3′-OH T specific overhang and blunt-ended DNA probes, shown in FIG. 2A and FIG. 2B, were ligated to the known oligonucleotide standard phantoms the amine apex oligoneuleotides, or alternatively, to fixed permeabilized U87 cells. The sections were pre-incubated in the ligation buffer without the probe (66 mM Tris-HCl, pH 7.5, 5 mM MgCl2, 0.1 mM dithioerythritol, 1 mM ATP, and 15% polyethylene glycol-8000) to ensure even saturation. The buffer was aspirated, and the full ligation mix containing the ligation buffer with probe, 35 μg/μL, and 0.5 U/μL T4 DNA ligase (New England BioLabs; Ipswich, Mass., USA) was applied to the sections, which were then incubated in a humidified box overnight.
The 3′-OH T-specific overhanging- and blunt-ended DNA probes shown in FIG. 11B were ligated to oligonucleotide standard phantoms, mammary gland or to fixed, permeabilized U87 cells. The sections were pre-incubated with ligation buffer in the absence of the probe (66 mM-Tris HCl, pH 7.5, 5 mM MgCl2, 0.1 mM dithioerythritol, 1 mM ATP, and 15% polyethylene glycol-8000) to ensure even saturation. The buffer was aspirated and the full ligation mix [ligation buffer+probe (35 μg/μL) and T4 DNA ligase (0.5 U/μL)] was applied to the sections, which were then incubated in a humidified box overnight. Controls consisted of probe-ligated phantoms, which were then incubated with either EcoRI or BamHI, in the appropriate buffer for 4 hrs, washed, cover-slipped using Fluoromount-G™ (SouthernBiotech), and then sealed with nail varnish.
(§1) Human glioblastoma cells (U87) (American Type Culture Collection, Manassas, Va., USA), and grown as recommended in DMEM with penicillin/streptomycin and 10% FBS. Following 3-weeks' growth and splitting, 5 mL of cells were plated into microscope slide chambers (Lab-Tek) at […], and were allowed to grow in the slide chambers for 24 hrs, until they became confluent. […] 24 hrs after treatment, all cells were fixed with 2% PFA for 1 hr, washed 3× in 0.1 M PBS, then incubated in 0.1% Triton X-100® for 6 min and finally washed in 0.1 M PBS buffer. Each slide was assayed for double-strand blunt (red) and overhanging (blue) DNA damage, and counterstained for DNA with YO-PRO-1® (green) or for γH2A.X with an FITC-labeled IgG antibody (green).

U87 cells [2] = test: ddTUNEL assay (3′OH DNA ends); assay type: cell-based, human; details: for ddTUNEL: approximate concentration of the probe in the cells: U87 cells following treatment, nominal path length of 6 μm, control 3.7
Description: ddTUNEL reaction buffer was prepared fresh daily by diluting a previously-frozen) stock solution of ddTUNEL buffer 1:5, and solution of cobalt chloride 1:25.
Stock reaction buffer, 5×: 125 mM Tris-HCl, 1 M sodium cacodylate, 1.25 mg/mL BSA, pH 6.6. Stock reaction CoCl2 solution, 25×: 25 mM cobalt chloride.
1. Wash samples twice in ddTUNEL reaction buffer for 10 min each.
2. Incubate sections in ddTUNEL reaction solution for 1-2 h at 37-40° C. in humidified chamber or overnight at room temperature.
5. Incubate with fluorescently labeled avidin or streptavidin ([…]) for 30 min.
(§2) U87 human glioblastoma cells were grown in DMEM with penicillin/streptomycin and 10% fetal bovine serum (FBS) (Invitrogen). Following 3-weeks' growth, 5 mL of cells were plated into slide chambers (Lab-Tek, Nalge Nunc International, Rochester, N.Y., USA) at 2×10^5 cells per mL, and grown for 24 hrs at 37° C. in a 5% CO2 incubator. […] 24-hrs' later, cells were fixed with 2% PFA, then permeabilized in 0.1% Triton X-100® as described above.

U87 cells [3] = test: Fpg-ddTUNEL assay (oxidized/acylated DNA bases), with or without NaBH4 reduction; assay type: cell-based, human; details: for Fpg-ddTUNEL: approximate concentration of the probe in the cells: U87 cells following treatment, nominal path length of 6 μm, control 0.9; for effect of NaBH4 reduction on the Fpg-ddTUNEL signal / oxo-base levels: ethanolic NaBH4
Description: Each sample was incubated in 25 mM sodium borohydride in 70% ethanol for 30 min. The sample was then washed twice in 0.1 M PBS. Typically, a slide box was employed, and it was half-filled with reducing solution so that half the sample(s) on the slide were reduced.
The sample was washed twice in 10 mM HEPES, 10 mM NaCl, 2 mM EDTA and 0.1% BSA and then ≈50 μL of the same buffer containing 100 U/mL of Fpg was applied to each of the sections, which were then incubated in a humidified box for ≧4 hr. The sample was washed twice in 100 mM PBS, and then twice in NEBuffer3. Approximately 50 μL of the same buffer containing 100 U/mL of CIAP was then applied to each section, and incubated for ≧2 hrs.
1. After completing both ddTUNEL and CIAP-ddTUNEL, each sample is washed twice in Fpg-buffer (Affymetrix) for 10 min.
2. Samples are then incubated in 100 U/mL Fpg (Affymetrix) in Fpg Buffer for 2 hr at 37° C. (or, alternatively, overnight at room temperature).
Following ddTUNEL and CIAP-ddTUNEL, capping 3′OH/3′PO4 ends, samples were washed twice in 10 mM HEPES, 10 mM NaCl, 2 mM EDTA and 0.1% BSA and then ≈50 μL of the same buffer containing 100 U/mL of Fpg was applied to each of the sections, and then incubated in a humidified box ≧4 hrs. Each sample was washed twice in 100 mM PBS, twice in NEBuffer3 and ≈50 μL of the same buffer containing 100 U/mL of CIAP was applied to each section and incubated for ≧2 hr; samples then underwent a third round of ddTUNEL.
as §2

[4] = system: normal human astrocytes (NHA); details: ethylmercury treatment (FIG. 21)
Description: Normal human astrocytes (NHA) were obtained from Lonza (Walkersville, Md., USA) and grown subject to their recommendations. NHA were grown to confluency in Astrocyte Cell Basal Medium supplemented with 3% FBS, Glutamine, Insulin, fhEGF, GA-1000 and ascorbic acid in 16-well Lab-Tek slide chambers (Nalge Nunc, Rochester, N.Y., USA), in a total volume of 240 μL.
NHA were incubated for 1 hour with probes before fixation. Fixation in buffered paraformaldehyde (PFA) was performed in two stages. Firstly, a 50-4 aliquot of ice-cold 8% PFA was added to each well, then gently aspirated and the wells were twice washed with ice-cold 2% PFA and then allowed to completely fix at 4° C. After fixation, cells were washed twice in 1×PBS (Thermo Fisher Scientific, Rockford, Ill., USA). The tanks were then removed from the slides, the well area covered with Fluoromount-G (SouthernBiotech, Ill., USA), cover-slipped and sealed with nail varnish.
3% FCS was present in the NHA medium throughout the time-course. To generate the time-course shown in FIG. 17A and FIG. 17B, NHA were exposed to Mitotracker, H2DCFAM and Hoechst at t=0.

U87 cells [5] = test: LD50 of stressors on the cells over a 24-hr incubation; assay type: cell-based, human
U87 cells [6] = test: γ-H2A.X histone labelling with FITC-labeled antibody; assay type: cell-based, human; details: 24 hrs
Description: FITC-labeled Anti-H2A.X histone monoclonal antibody (BioLegend, San Diego, Calif.) was used as an internal control for DNA breaks, at a 1/50 dilution after the samples were blocked with 10% horse serum.
as §1
After incubation with 10% horse sera and washing, Ser139-phosphorylated H2A.X histone was imaged using an FITC-labeled monoclonal antibody (Biolegend, San Diego, Calif., USA) (1:500) following the methods of the manufacturer. Immune cell marker CD3ε was imaged using an FITC-labeled monoclonal antibody (Santa Cruz Biotechnologies, Santa Cruz, Calif.) (also at 1:500) as recommended by the manufacturer.

Row | SMILES | number of 3′-T-OH overhang ends / overhanging cuts (U87 cells [1]) | number of blunt-ended breaks (U87 cells [1]) | ddTUNEL: approximate concentration of the probe in the cells (U87 cells [2]) | Fpg-ddTUNEL: approximate concentration of the probe in the cells (U87 cells [3]) | effect of NaBH4 reduction on the Fpg-ddTUNEL signal / oxo-base levels (U87 cells [3]; U87 cells) | LD50 (U87 cells [5]) | blebbing of treated cells (U87 cells [1]; 24 hrs) | also measured
1 | CCc1c2c(nc3ccc(OC(=O)N4CCC(N5CCCCC5)CC4)cc13)-c1cc3c(c(=O)n1C2)COC(=O)[C@]3(O)CC [Irinotecan, (S)-4,11-diethyl-3,4,12,14-tetrahydro-4-hydroxy-3,14-dioxo1H-pyrano[3′,4′:6,7]-indolizino[1,2-b]quinolin-9-yl-[1,4′bipiperidine]-1′-carboxylate] | 119 per million base pairs | 285 per million base pairs | 7.4 µM | 1.7 µM | unaltered by reduction |  |  | difference in overhang breaks vs control cells (U87 cells [1]; 24 hrs, Example 2): greater than 50 ×; increase in number of blunt-ended breaks (U87 cells [1]; vs control cells (FIG. 7)): more than 50%; increase in number of overhanging breaks (U87 cells [1]; vs control cells (FIG. 7)): ~3 fold
2 | C[CH2][Hg] [ethylmercury] |  |  |  |  |  |  |  | formation of dichlorofluorescein from H2DCF-AM greater than superoxide/carbonyl formation [4]: approximately 20%
3 | Cn1nnc2c(C(N)=O)ncn2c1=O [Temozolomide] | ~350 per million base pairs | approximately 900 per million base pairs | 8.7 µM | 13.7 µM |  | 25 µM |  | difference in levels of blunt-end breaks vs control cells (U87 cells [1]; 24 hrs, Example 2): greater than 30 ×
4 | OO [H2O2, hydrogen peroxide] |  |  | 9.4 µM | 4.5 µM | redox sensitive | 1000 µM | formation of blebs | 
5 | C[n+]1ccc(-c2cc[n+](C)cc2)cc1 [Paraquat] |  |  | 37.2 µM | 6.3 µM |  | 300 µM | no blebbing apparent | blebbing of treated cells (U87 cells [1]; 24 hrs, listed as paraquat): no evidence of blebbing; share of γ-H2AX found in the cytosol (U87 cells [6]): 65%
6 | O=NN(CCCl)C(=O)NCCCl [Carmustine, N,N′-bis(2-chloroethyl)-N-nitroso-urea] | ~350 per million base pairs | approximately 900 per million base pairs | 22.8 µM | 5.2 µM | unaltered by reduction | 2.5 µM | formation of small blebs | change in blunt-ended breaks (U87 cells [1]; 24 hrs, Example 2): massive increases; increase in levels of overhangs (U87 cells [1]; 24 hrs, Example 2): more than an order of magnitude; increase in ddTUNEL (U87 cells [2]; U87 cells, vs control): six-fold; difference in cytosolic γ-H2A.X levels, carmustine-treated vs temozolomide-treated cells (U87 cells [6]): 10 fold; transfer of γ-H2A.X into the cytosol (U87 cells [6]): transfer of γ-H2A.X into the cytosol; increase in Fpg-ddTUNEL (U87 cells [3]; U87 cells, vs control): six-fold
